Experimental data from patent publication US9134315B2, “Use of the lactosylceramide synthase isoform B1,4GalT-V as a biomarker for cancer” (The Johns Hopkins University, priority 2010, dated 2015).
Entries after “also recorded” stand apart in the source; their conditions may differ.

Assays:
HUVEC [1] = experiment: In vitro angiogenesis/tube formation assay in HUVEC; format: cell-based, human; conditions: for Effect on VEGF-induced tube formation: pre-treatment with inhibitor; for Induction of tube formation: VEGF 10 ng/ml; for Bypass of D-PDMP inhibition of VEGF-induced tube formation: co-incubated with VEGF after D-PDMP pre-treatment
Description: HUVECs were grown on 24-well culture plates and then exposed to various agonists/antagonists. After stipulated time points, cells were trypsinized, washed in sterile PBS twice and then reconstituted in EGM™ containing 2% FBS. In vitro angiogenesis assay was performed using a commercially available kit from Chemicon International. In brief, 50 μl of ECMatrix™ were placed on 96-well plates and allowed to polymerize at 37° C. for 2 hr. […] Tubes formed were documented using phase contrast microscope (NIKON) at 10× magnification. Images were acquired using CCD camera connected to computer with online image acquiring software AxioVision software (ZEISS). For quantification of tube lengths, images were exported to NIH Image J Software (http://rsb.info.hih.gov/ij/download.html). Results are shown as the mean tube length±SD (in um) for three photographic fields per experiment/well for at least three experiments per condition.

HAEC = experiment: In vitro angiogenesis/tube formation assay in HAEC; format: cell-based, human
Description: HUVECs were grown on 24-well culture plates and then exposed to various agonists/antagonists. After stipulated time points, cells were trypsinized, washed in sterile PBS twice and then reconstituted in EGM™ containing 2% FBS. In vitro angiogenesis assay was performed using a commercially available kit from Chemicon International. In brief, 50 μl of ECMatrix™ were placed on 96-well plates and allowed to polymerize at 37° C. for 2 hr. Then, HUVEC/HAEC (5×10^3) were suspended in 200 μl of EGM containing 2% FBS and pretreated with inhibitors±VEGF/bFGF/LacCer/S1P for an hr at 37° C., then the cells were added on top of the polymerized ECMatrix™ and incubated at 37° C. in 5% CO2 atmosphere for 8-12 hrs. Tubes formed were documented using phase contrast microscope (NIKON) at 10× magnification. Images were acquired using CCD camera connected to computer with online image acquiring software AxioVision software (ZEISS). For quantification of tube lengths, images were exported to NIH Image J Software (http://rsb.info.hih.gov/ij/download.html). Results are shown as the mean tube length±SD (in um) for three photographic fields per experiment/well for at least three experiments per condition.

HUVEC [2] = test system: HUVEC
U-937 cells = experiment: Transendothelial migration (TEM) of U-937 cells across HUVEC; format: cell-based, human
Description: (A) Western blot analysis of PECAM-1 expression in HUVECs that were pretreated with either LY294002 (75 μM), L-NAME (100 μM) or PDTC (25 μM) for 90 min, followed by incubation with VEGF (25 ng/ml) for 4 hrs. […] (C) HUVECs were pretreated with either LY294002 (75 μM), L-NAME (100 μM), PDTC (25 μM), PECAM-1 monoclonal antibody (4 μg/ml) or mouse IgG (4 μg/ml) for 90 min, followed by incubation with VEGF (25 ng/ml) for 4 hrs and then U937 (monocyte) TEM assays were performed as described below. *P<0.001 vs. vehicle control; **P<0.001 vs. […] TEM assays were performed as previously described. Wei et al., 320 BIOCHEM. BIOPHYS. RES. COMMUN. 1228-35 (2004). Briefly, HUVECs (3×10^5/ml) were placed on 0.2% gelatin coated upper side of Costar® Transwell® inserts (12 mm diameter, 3.0 μm pore-size) (Corning Incorporated, Acton, Mass.) and allowed to reach confluence. Afterwards, the cells were incubated with 2% FBS plus growth factor free EGM for 6 hrs. Subsequently, 3×10^6/ml U-937 promonocytic cell line was added to the upper chamber of the insert and allowed to migrate for 10-12 hrs. At the end of incubation, the U-937 cells that migrated to the lower chamber were carefully aspirated and washed in PBS twice (1500 rpm, 10 min, 4° C.) and then counted using a Neubauer chamber.

PECAM-1 = experiment: Western immunoblot of PECAM-1 expression in HUVEC; format: cell-based, human
Description: (A) Western blot analysis of PECAM-1 expression in HUVECs that were pretreated with either LY294002 (75 μM), L-NAME (100 μM) or PDTC (25 μM) for 90 min, followed by incubation with VEGF (25 ng/ml) for 4 hrs. […] (C) HUVECs were pretreated with either LY294002 (75 μM), L-NAME (100 μM), PDTC (25 μM), PECAM-1 monoclonal antibody (4 μg/ml) or mouse IgG (4 μg/ml) for 90 min, followed by incubation with VEGF (25 ng/ml) for 4 hrs and then U937 (monocyte) TEM assays were performed as described below. *P<0.001 vs. vehicle control; **P<0.001 vs. […] Cells treated with agonists/antagonists were washed twice in PBS and lysed with mammalian protein extraction reagent (Pierce Biotechnology) supplemented with protease inhibitor cocktail (Roche Diagnostics GmbH). Protein content was determined using a Bradford dye binding assay kit from Bio-Rad Laboratories, Inc. (Richmond, Calif.) using BSA as standard. Twenty-five μg of cellular protein was resolved by 10% SDS-PAGE and then transferred to nitrocellulose membrane. After blocking (5% non-fat dry milk powder in Tris-buffered saline, pH 8.0 containing 0.05% Tween 20) for 1 hr at room temperature, membranes were incubated with appropriate primary antibodies. […] The x-ray films were then densitometrically scanned using a Molecular Dynamics Image Scanner and analyzed using Image Quant software.

HUVEC [3] = experiment: Apoptosis in HUVEC (DAPI staining, cytochrome c release); format: cell-based, human; conditions: basal medium with 2% fetal bovine serum, data not shown
nude mice = experiment: In vivo angiogenesis, Matrigel plug assay in nude mice; conditions: Matrigel plug with VEGF/bFGF 4 μg/ml, D-PDMP 10 mg/kg IP daily for 10 days
Description: In vivo angiogenesis was measured by Matrigel plug assay in nude mice. Matrigel mixed with VEGF and bFGF (4 μg/ml each) with or without D-PDMP was injected subcutaneously into the abdomen of nude mice. Plugs were retrieved after 10 days with daily dose of D-PDMP (10 mg/kg Intraperitoneal). […] Approximately 10 fields were taken for each plug, and five plugs from each treated or control group were analyzed by Image Pro software. Results are expressed as percent micro vessel area means±SEM. *P<0.001 versus untreated controls (n=6).
(§1) Female athymic nude mice were injected subcutaneously with […] of Matrigel mixture, containing VEGF (4 μg/ml) and b-FGF (4 μg/ml). Two days later, D-PDMP (10 mg/kg) suspended in 5% Tween-80/0.85% NaCl and was injected intraperitoneally daily for ten days. Mice, injected with vehicle alone, served as control. Passaniti et al., 67 LAB. INVEST. 519-28 (1992). Next, Matrigel plugs were removed, fixed in 10% formalin/PBS, embedded in paraffin and sectioned. Sections were stained with trichrome-Masson stain and photographed. Tissues were also flash-frozen and the activity of LacCer synthase was measured.

LacCer synthase = LacCer synthase activity in tissues of treated mice; format: in vivo
Description: as §1
The activity of LacCer synthase was measured using ^14C-UDP-Gal as donor and GlcCer as substrate as described previously. See Chatterjee, S., 311 METHODS ENZYMOL. 73-81 (2000).

renal cancer = experiment: Mice model of renal cancer; format: in vivo
[4] = LY294002 75 μM, PDTC 25 μM for 90 min, then VEGF 25 ng/ml 4 hrs

## Cc1ccc(C(=O)Nc2ccc(S(=O)(=O)O)c3cc(S(=O)(=O)O)cc(S(=O)(=O)O)c23)cc1NC(=O)c1cccc(NC(=O)Nc2cccc(C(=O)Nc3cc(C(=O)Nc4ccc(S(=O)(=O)O)c5cc(S(=O)(=O)O)cc(S(=O)(=O)O)c45)ccc3C)c2)c1 [suramin]
HUVEC [1]
  Effect on LacCer-induced tube formation/angiogenesis: not
  Effect on S1P-induced tube formation: inhibited
  Effect on VEGF-induced tube formation: inhibited
HUVEC [1]; listed as surmain
  Effect on VEGF-induced tube formation: mitigated

## VEGF
HAEC; HAEC
  Induction of tube formation: induced marked tube formation; also recorded: markedly induced
HUVEC [2]
  Stimulation of proliferation: stimulated proliferation
U-937 cells; VEGF 25 ng/ml 4 hrs
  Induction of transendothelial migration (TEM) of U-937 cells: induced marked
PECAM-1; VEGF 25 ng/ml 4 hrs
  Induction of PECAM-1 expression: induced marked expression
HUVEC [1]
  Induction of tube formation: marked tube formation; also recorded: induced tube formation; also recorded: induced marked

## S=C(S)N1CCCC1 [PDTC, 1-pyrrolodinecarbodithioicacid]
U-937 cells; [4]
  Effect on VEGF-induced transendothelial migration (TEM) of U-937 cells: blunted
PECAM-1; [4]
  Effect on VEGF-induced PECAM-1 expression: blunted
HUVEC [1]
  Effect on VEGF-induced tube formation: blunted

## CCCCCCCCCCCCC/C=C/[C@@H](O)[C@H](CO)N(C)C [DMS, dimethyl sphingosine]
HUVEC [1]
  Effect on S1P-induced tube formation: inhibited
  Effect on VEGF-induced tube formation: inhibited; also recorded: abrogated

## CCCCCCCCCC(=O)N[C@H](CN1CCOCC1)[C@H](O)c1ccccc1 [D-PDMP, D-threo-1-Phenyl-2-decanoylamino-3-morpholino-1-propanol]
HUVEC [3]
  Effect on apoptosis, compound alone: did not alter
HAEC; HAEC, D-PDMP 20 μM
  Effect on VEGF-induced tube formation: inhibited
  Effect on bFGF-induced tube formation: inhibited
HAEC; human arterial endothelial cells
  Effect on VEGF/B-FGF-induced angiogenesis: mitigated
HUVEC [2]; D-PDMP 10-20 μM
  Effect on VEGF-stimulated proliferation: reduced this effect significantly
HUVEC [2]; basal medium with 2% fetal bovine serum, data not shown
  Effect on cell proliferation, compound alone: did not alter
Nude mice; P<0.001
  Effect on VEGF/bFGF-induced angiogenesis in vivo: significantly inhibited; also recorded: mitigated
Nude mice; P<0.001, listed as PDMP
  Effect on VEGF/bFGF-induced angiogenesis in vivo: mitigates
LacCer synthase; D-PDMP 10 mg/kg IP 10 days, versus agonist treated mice
  Decrease in the activity of LacCer synthase: 39%
LacCer synthase; D-PDMP treated animals, 10 mg/kg IP 10 days
  Activity of LacCer synthase: 0.200±0.015 nmol/mg protein
Renal cancer
  Survival: markedly reduce
  Tumor volume: markedly reduce
HUVEC [1]
  Effect on LacCer-induced tube formation/angiogenesis: blunted
  Effect on VEGF-induced tube formation: inhibited; also recorded: blunted

## CCCCCCCCCCCCC/C=C/[C@@H](O)[C@@H](N)COP(=O)(O)O [S1P, sphingosine-1-phosphate]
HUVEC [1]
  Bypass of DMS inhibition of VEGF-induced tube formation: not
  Bypass of D-PDMP inhibition of VEGF-induced tube formation: not

## Lactosylceramide [LacCer]
HAEC; HAEC, LacCer 2.5 μM
  Reversal of D-PDMP inhibition of VEGF-induced tube formation: reversed
  Reversal of D-PDMP inhibition of bFGF-induced tube formation: reversed
HUVEC [1]
  Bypass of DMS inhibition of VEGF-induced tube formation: bypassed; also recorded: by-passed
  Bypass of suramin inhibition of S1P-induced angiogenesis: by passed
  Bypass of suramin inhibition of VEGF-induced tube formation: bypassed
  Induction of tube formation: induced tube formation
  Bypass of D-PDMP inhibition of VEGF-induced tube formation: bypassed the inhibitory effect

## bFGF: Human recombinant basic fibroblast growth factor
HAEC; HAEC
  Induction of tube formation: induced marked tube formation
